Measurements reported in ChEMBL document CHEMBL1201861, “Genomics of Drug Sensitity in Cancer screening data, Wellcome Trust Sanger Institute”.
pIC50: −log10 of the molar value.

What was measured:
Experiment in all cases: cells
DU-4475 = format: functional, cell-based; conditions: Homo sapiens
Description: SANGER: Inhibition of human DU-4475 cell growth in a cell viability assay.

HT-1376 = format: functional, cell-based, Homo sapiens; conditions: Homo sapiens, HT-1376
Description: SANGER: Inhibition of human HT-1376 cell growth in a cell viability assay.

KY821 = format: functional, cell-based; conditions: Homo sapiens
LOX IMVI = format: functional, cell-based; conditions: Homo sapiens
Description: SANGER: Inhibition of human LOXIMVI cell growth in a cell viability assay.

NB5 = format: functional, cell-based, Homo sapiens; conditions: Homo sapiens, NB5
Description: SANGER: Inhibition of human NB5 cell growth in a cell viability assay.

HuP-T4 = format: functional, cell-based, Homo sapiens; conditions: Homo sapiens, HuP-T4
Description: SANGER: Inhibition of human HuP-T4 cell growth in a cell viability assay.

HGC-27 = format: functional, cell-based, Homo sapiens; conditions: Homo sapiens, HGC-27
Description: SANGER: Inhibition of human HGC-27 cell growth in a cell viability assay.

A388 = format: functional, cell-based, Homo sapiens; conditions: Homo sapiens, A388
Description: SANGER: Inhibition of human A388 cell growth in a cell viability assay.

SCC-15 = format: functional, cell-based, Homo sapiens; conditions: Homo sapiens, SCC-15
Description: SANGER: Inhibition of human SCC-15 cell growth in a cell viability assay.

DMS-79 = format: functional, cell-based; conditions: Homo sapiens
Description: SANGER: Inhibition of human DMS-79 cell growth in a cell viability assay.

MZ2-MEL = format: functional, cell-based, Homo sapiens; conditions: Homo sapiens, MZ2-MEL
Description: SANGER: Inhibition of human MZ2-MEL cell growth in a cell viability assay.

LK-2 = format: functional, cell-based, Homo sapiens; conditions: Homo sapiens, LK-2
Description: SANGER: Inhibition of human LK-2 cell growth in a cell viability assay.

MZ7-mel = format: functional, cell-based, Homo sapiens; conditions: Homo sapiens, MZ7-mel
Description: SANGER: Inhibition of human MZ7-mel cell growth in a cell viability assay.

ACHN = format: functional, cell-based, Homo sapiens; conditions: Homo sapiens, ACHN
Description: SANGER: Inhibition of human ACHN cell growth in a cell viability assay.

ONS-76 = format: functional, cell-based, Homo sapiens; conditions: Homo sapiens, ONS-76
Description: SANGER: Inhibition of human ONS-76 cell growth in a cell viability assay.

DOHH-2 = format: functional, cell-based; conditions: Homo sapiens
Description: SANGER: Inhibition of human DOHH-2 cell growth in a cell viability assay.

SW-620 = format: functional, cell-based, Homo sapiens; conditions: Homo sapiens, SW-620
Description: SANGER: Inhibition of human SW620 cell growth in a cell viability assay.

SW 954 = format: functional, cell-based, Homo sapiens; conditions: Homo sapiens, SW 954
Description: SANGER: Inhibition of human SW954 cell growth in a cell viability assay.

TE-6 = format: functional, cell-based, Homo sapiens; conditions: Homo sapiens, TE-6
Description: SANGER: Inhibition of human TE-6 cell growth in a cell viability assay.

8-MG-BA = format: functional, cell-based, Homo sapiens; conditions: Homo sapiens, 8-MG-BA
Description: SANGER: Inhibition of human 8-MG-BA cell growth in a cell viability assay.

LC-2-ad = format: functional, cell-based, Homo sapiens; conditions: Homo sapiens, LC-2-ad
Description: SANGER: Inhibition of human LC-2-ad cell growth in a cell viability assay.

JVM-2 = format: functional, cell-based; conditions: Homo sapiens
Description: SANGER: Inhibition of human JVM-2 cell growth in a cell viability assay.

ChaGo-K-1 = format: functional, cell-based; conditions: Homo sapiens
Description: SANGER: Inhibition of human ChaGo-K-1 cell growth in a cell viability assay.

MDA-MB-361 = format: functional, cell-based, Homo sapiens; conditions: Homo sapiens, MDA-MB-361
LS-411N = format: functional, cell-based, Homo sapiens; conditions: Homo sapiens, LS-411N
COLO-668 = format: functional, cell-based, Homo sapiens; conditions: Homo sapiens, COLO-668
Description: SANGER: Inhibition of human COLO-668 cell growth in a cell viability assay.

VMRC-RCZ = format: functional, cell-based; conditions: Homo sapiens
Description: SANGER: Inhibition of human VMRC-RCZ cell growth in a cell viability assay.

CAMA-1 = format: functional, cell-based, Homo sapiens; conditions: Homo sapiens, CAMA-1
Description: SANGER: Inhibition of human CAMA-1 cell growth in a cell viability assay.

EW-13 = format: functional, cell-based; conditions: Homo sapiens
Description: SANGER: Inhibition of human EW-13 cell growth in a cell viability assay.

HCC70 = format: functional, cell-based, Homo sapiens; conditions: Homo sapiens, HCC70
Description: SANGER: Inhibition of human HCC70 cell growth in a cell viability assay.

SW1990 = format: functional, cell-based, Homo sapiens; conditions: Homo sapiens, SW1990
Description: SANGER: Inhibition of human SW1990 cell growth in a cell viability assay.

RCM-1 = format: functional, cell-based, Homo sapiens; conditions: Homo sapiens, RCM-1
Description: SANGER: Inhibition of human RCM-1 cell growth in a cell viability assay.

MHH-PREB-1 = format: functional, cell-based; conditions: Homo sapiens
Description: SANGER: Inhibition of human MHH-PREB-1 cell growth in a cell viability assay.

EM-2 = format: functional, cell-based; conditions: Homo sapiens
Description: SANGER: Inhibition of human EM-2 cell growth in a cell viability assay.

CGTH-W-1 = format: functional, cell-based, Homo sapiens; conditions: Homo sapiens, CGTH-W-1
Description: SANGER: Inhibition of human CGTH-W-1 cell growth in a cell viability assay.

TYK-nu = format: functional, cell-based, Homo sapiens; conditions: Homo sapiens, TYK-nu
Description: SANGER: Inhibition of human TYK-nu cell growth in a cell viability assay.

HN = format: functional, cell-based, Homo sapiens; conditions: Homo sapiens, HN
Description: SANGER: Inhibition of human HN cell growth in a cell viability assay.

PFSK-1 = format: functional, cell-based, Homo sapiens; conditions: Homo sapiens, PFSK-1
Description: SANGER: Inhibition of human PFSK-1 cell growth in a cell viability assay.

SW1417 = format: functional, cell-based, Homo sapiens; conditions: Homo sapiens, SW1417
Description: SANGER: Inhibition of human SW1417 cell growth in a cell viability assay.

J82 = format: functional, cell-based; conditions: Homo sapiens
Description: SANGER: Inhibition of human J82 cell growth in a cell viability assay.

NCI-H1623 = format: functional, cell-based, Homo sapiens; conditions: Homo sapiens, NCI-H1623
Description: SANGER: Inhibition of human NCI-H1623 cell growth in a cell viability assay.

A-375 = format: functional, cell-based, Homo sapiens; conditions: Homo sapiens, A-375
Description: SANGER: Inhibition of human A375 cell growth in a cell viability assay.

ES6 = format: functional, cell-based, Homo sapiens; conditions: Homo sapiens, ES6
Description: SANGER: Inhibition of human ES6 cell growth in a cell viability assay.

BV-173 = format: functional, cell-based; conditions: Homo sapiens
Description: SANGER: Inhibition of human BV-173 cell growth in a cell viability assay.

MKN-7 = format: functional, cell-based, Homo sapiens; conditions: Homo sapiens, MKN-7
Description: SANGER: Inhibition of human MKN7 cell growth in a cell viability assay.

ALL-PO = format: functional, cell-based; conditions: Homo sapiens
Description: SANGER: Inhibition of human ALL-PO cell growth in a cell viability assay.

NTERA-2-cl-D1 = format: functional, cell-based, Homo sapiens; conditions: Homo sapiens, NTERA-2-cl-D1
Description: SANGER: Inhibition of human NTERA-S-cl-D1 cell growth in a cell viability assay.

HuP-T3 = format: functional, cell-based, Homo sapiens; conditions: Homo sapiens, HuP-T3
Description: SANGER: Inhibition of human HuP-T3 cell growth in a cell viability assay.

HL-60 = format: functional, cell-based; conditions: Homo sapiens
Description: SANGER: Inhibition of human HL-60 cell growth in a cell viability assay.

AGS = format: functional, cell-based, Homo sapiens; conditions: Homo sapiens, AGS
Description: SANGER: Inhibition of human AGS cell growth in a cell viability assay.

NCI-H1648 = format: functional, cell-based, Homo sapiens; conditions: Homo sapiens, NCI-H1648
Description: SANGER: Inhibition of human NCI-H1648 cell growth in a cell viability assay.

NCI-H1693 = format: functional, cell-based, Homo sapiens; conditions: Homo sapiens, NCI-H1693
Description: SANGER: Inhibition of human NCI-H1693 cell growth in a cell viability assay.

TE-8 = format: functional, cell-based, Homo sapiens; conditions: Homo sapiens, TE-8
Description: SANGER: Inhibition of human TE-8 cell growth in a cell viability assay.

## O=C(NOCC1CC1)c1ccc(F)c(F)c1Nc1ccc(I)cc1Cl [CI-1040]
DU-4475
  pIC50: 7.12
HT-1376
  pIC50: < 5.00
KY821
  pIC50: 6.42
LOX IMVI
  pIC50: 5.72
NB5
  pIC50: 5.34
HuP-T4
  pIC50: 5.93
HGC-27
  pIC50: < 5.00
A388
  pIC50: < 5.00
SCC-15
  pIC50: < 5.00
DMS-79
  pIC50: < 5.00
MZ2-MEL
  pIC50: 5.68
LK-2
  pIC50: < 5.00
MZ7-mel
  pIC50: 6.58
ACHN
  pIC50: 5.15
ONS-76
  pIC50: 5.91
DOHH-2
  pIC50: 5.09
SW-620
  pIC50: 5.94
SW 954
  pIC50: 5.05
TE-6
  pIC50: < 5.00
8-MG-BA
  pIC50: < 5.00
LC-2-ad
  pIC50: < 5.00
JVM-2
  pIC50: < 5.00
ChaGo-K-1
  pIC50: < 5.00
MDA-MB-361
  pIC50: < 5.00
LS-411N
  pIC50: 5.85
COLO-668
  pIC50: < 5.00
VMRC-RCZ
  pIC50: < 5.00
CAMA-1
  pIC50: < 5.00
EW-13
  pIC50: 5.59
HCC70
  pIC50: 5.69
SW1990
  pIC50: < 5.00
RCM-1
  pIC50: 5.91
MHH-PREB-1
  pIC50: 5.38
EM-2
  pIC50: 5.68
CGTH-W-1
  pIC50: 5.41
TYK-nu
  pIC50: 5.99
HN
  pIC50: 5.66
PFSK-1
  pIC50: < 5.00
SW1417
  pIC50: 5.02
J82
  pIC50: < 5.00
NCI-H1623
  pIC50: < 5.00
A-375
  pIC50: 5.72
ES6
  pIC50: < 5.00
BV-173
  pIC50: 5.84
MKN-7
  pIC50: < 5.00
ALL-PO
  pIC50: 5.36
NTERA-2-cl-D1
  pIC50: < 5.00
HuP-T3
  pIC50: 5.25
HL-60
  pIC50: 6.39
AGS
  pIC50: 6.93
NCI-H1648
  pIC50: < 5.00
NCI-H1693
  pIC50: 5.05
TE-8
  pIC50: 5.25

## CN(c1ncccc1CNc1nc(Nc2ccc3c(c2)CC(=O)N3)ncc1C(F)(F)F)S(C)(=O)=O [PF-00562271]
DU-4475
  pIC50: 5.67
HT-1376
  pIC50: < 5.59
KY821
  pIC50: < 5.59
LOX IMVI
  pIC50: < 5.59
NB5
  pIC50: < 5.59
HuP-T4
  pIC50: < 5.59
HGC-27
  pIC50: < 5.59
A388
  pIC50: < 5.59
SCC-15
  pIC50: < 5.59
DMS-79
  pIC50: < 5.59
MZ2-MEL
  pIC50: < 5.59
LK-2
  pIC50: < 5.59
MZ7-mel
  pIC50: < 5.59
ACHN
  pIC50: < 5.59
ONS-76
  pIC50: < 5.59
DOHH-2
  pIC50: < 5.59
SW-620
  pIC50: < 5.59
SW 954
  pIC50: 5.70
TE-6
  pIC50: < 5.59
8-MG-BA
  pIC50: < 5.59
LC-2-ad
  pIC50: 5.64
JVM-2
  pIC50: < 5.59
ChaGo-K-1
  pIC50: < 5.59
MDA-MB-361
  pIC50: < 5.59
LS-411N
  pIC50: < 5.59
COLO-668
  pIC50: < 5.59
VMRC-RCZ
  pIC50: < 5.59
CAMA-1
  pIC50: < 5.59
EW-13
  pIC50: 5.79
HCC70
  pIC50: < 5.59
SW1990
  pIC50: < 5.59
RCM-1
  pIC50: < 5.59
MHH-PREB-1
  pIC50: < 5.59
EM-2
  pIC50: < 5.59
CGTH-W-1
  pIC50: 5.79
TYK-nu
  pIC50: < 5.59
HN
  pIC50: < 5.59
PFSK-1
  pIC50: < 5.59
SW1417
  pIC50: < 5.59
J82
  pIC50: < 5.59
NCI-H1623
  pIC50: < 5.59
A-375
  pIC50: < 5.59
ES6
  pIC50: < 5.59
BV-173
  pIC50: < 5.59
MKN-7
  pIC50: < 5.59
ALL-PO
  pIC50: 5.99
NTERA-2-cl-D1
  pIC50: < 5.59
HuP-T3
  pIC50: < 5.59
HL-60
  pIC50: < 5.59
AGS
  pIC50: 5.82
NCI-H1648
  pIC50: < 5.59
NCI-H1693
  pIC50: < 5.59
TE-8
  pIC50: < 5.59

## Cc1ccc(Nc2nccc(N(C)c3ccc4c(C)n(C)nc4c3)n2)cc1S(N)(=O)=O [PAZOPANIB]
DU-4475
  pIC50: < 5.10
HT-1376
  pIC50: < 5.10
KY821
  pIC50: < 5.10
LOX IMVI
  pIC50: < 5.10
NB5
  pIC50: < 5.10
HuP-T4
  pIC50: < 5.10
HGC-27
  pIC50: 5.21
A388
  pIC50: < 5.10
SCC-15
  pIC50: < 5.10
DMS-79
  pIC50: < 5.10
MZ2-MEL
  pIC50: 5.16
LK-2
  pIC50: 5.58
MZ7-mel
  pIC50: < 5.10
ACHN
  pIC50: < 5.10
ONS-76
  pIC50: < 5.10
DOHH-2
  pIC50: < 5.10
SW-620
  pIC50: < 5.10
SW 954
  pIC50: < 5.10
TE-6
  pIC50: < 5.10
8-MG-BA
  pIC50: < 5.10
LC-2-ad
  pIC50: < 5.10
JVM-2
  pIC50: < 5.10
ChaGo-K-1
  pIC50: < 5.10
MDA-MB-361
  pIC50: < 5.10
LS-411N
  pIC50: < 5.10
COLO-668
  pIC50: < 5.10
VMRC-RCZ
  pIC50: < 5.10
CAMA-1
  pIC50: < 5.10
EW-13
  pIC50: < 5.10
HCC70
  pIC50: < 5.10
SW1990
  pIC50: < 5.10
RCM-1
  pIC50: < 5.10
MHH-PREB-1
  pIC50: < 5.10
EM-2
  pIC50: < 5.10
CGTH-W-1
  pIC50: 7.40
TYK-nu
  pIC50: < 5.10
HN
  pIC50: < 5.10
PFSK-1
  pIC50: < 5.10
SW1417
  pIC50: < 5.10
J82
  pIC50: 5.69
NCI-H1623
  pIC50: < 5.10
A-375
  pIC50: < 5.10
ES6
  pIC50: 5.22
BV-173
  pIC50: < 5.10
MKN-7
  pIC50: < 5.10
ALL-PO
  pIC50: < 5.10
NTERA-2-cl-D1
  pIC50: < 5.10
HuP-T3
  pIC50: < 5.10
HL-60
  pIC50: < 5.10
AGS
  pIC50: < 5.10
NCI-H1648
  pIC50: < 5.10
NCI-H1693
  pIC50: < 5.10
TE-8
  pIC50: 5.21
